Test results: ChEMBL document CHEMBL1135450, “Discovery of phenyl alanine derived ketoamides carrying benzoyl residues as novel calpain inhibitors” (Bioorg Med Chem Lett, 2002)
Where a SMILES comes first, the peptide text is derived from it. [ ]: non-standard residue; d: D form. The star is where a group is joined. ξ: configuration not given here. ξF = NC(Cc1ccccc1)C(=O)O; Cbz = O=C(OCc1ccccc1)*

molecular target: T1, Calpain-1 catalytic subunit (Homo sapiens, UniProt P07384); assay: Inhibition of calpain, using human mu-calpain isolated from erythrocytes and Suc-Leu-Tyr-AMC as the fluorogenic substrate; assay type: cell-free
T1 sequence (P07384 whole entry): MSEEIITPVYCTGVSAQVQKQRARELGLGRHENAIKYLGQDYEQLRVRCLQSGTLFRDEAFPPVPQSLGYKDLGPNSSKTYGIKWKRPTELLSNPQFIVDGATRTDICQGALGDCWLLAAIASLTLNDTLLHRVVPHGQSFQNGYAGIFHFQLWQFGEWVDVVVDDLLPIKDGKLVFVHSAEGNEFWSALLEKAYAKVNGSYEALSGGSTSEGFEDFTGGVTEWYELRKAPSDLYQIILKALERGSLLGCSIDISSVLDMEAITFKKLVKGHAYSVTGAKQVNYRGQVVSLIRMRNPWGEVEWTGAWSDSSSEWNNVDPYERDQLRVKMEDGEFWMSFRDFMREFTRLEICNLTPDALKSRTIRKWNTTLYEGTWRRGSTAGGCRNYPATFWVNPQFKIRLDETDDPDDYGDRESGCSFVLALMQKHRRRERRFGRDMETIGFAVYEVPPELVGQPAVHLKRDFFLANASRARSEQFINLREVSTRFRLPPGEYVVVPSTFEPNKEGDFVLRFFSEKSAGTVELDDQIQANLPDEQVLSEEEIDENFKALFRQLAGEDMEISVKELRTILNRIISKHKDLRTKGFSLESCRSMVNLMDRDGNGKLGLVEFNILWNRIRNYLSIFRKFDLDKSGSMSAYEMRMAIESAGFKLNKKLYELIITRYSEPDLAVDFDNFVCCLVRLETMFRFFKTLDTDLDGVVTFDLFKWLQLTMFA

| Compound | Ki [nM] |
| --- | --- |
| O=CC(Cc1ccccc1)NC(=O)c1ccccc1Cc1ccccc1 (stereo not given) | 370 |
| O=CC(Cc1ccccc1)NC(=O)c1ccccc1/C=C/c1ccccc1 (stereo not given) | 140 |
| O=CC(Cc1ccccc1)NC(=O)c1ccccc1CCc1ccccc1 (stereo not given) | 280 |
| O=CC(Cc1ccccc1)NC(=O)c1ccccc1OCc1ccc2ccccc2c1 (stereo not given) | 50 |
| O=CC(Cc1ccccc1)NC(=O)c1ccccc1C#Cc1ccccc1 (stereo not given) | 450 |
| NC(=O)C(=O)C(Cc1ccccc1)NC(=O)c1ccccc1/C=C/c1ccc2ccccc2c1 (stereo not given) | 6 |
| O=CC(Cc1ccccc1)NC(=O)c1ccccc1COc1ccccc1 (stereo not given) | 450 |
| O=CC(Cc1ccccc1)NC(=O)c1ccccc1/C=C/c1ccc2ccccc2c1 (stereo not given) | 15 |
| O=CC(Cc1ccccc1)NC(=O)c1ccccc1Cc1ccc2ccccc2c1 (stereo not given) | 200 |
| O=CC(Cc1ccccc1)NC(=O)c1ccccc1 (stereo not given) | 1080 |
| O=CC(Cc1ccccc1)NC(=O)c1ccccc1Oc1ccccc1 (stereo not given) | 50 |
| COc1ccc(/C=C/c2ccccc2C(=O)NC(C=O)Cc2ccccc2)cc1OC (stereo not given) | 40 |
| O=CC(Cc1ccccc1)NC(=O)c1ccccc1-c1ccccc1 (stereo not given) | 90 |
| O=CC(Cc1ccccc1)NC(=O)c1ccccc1C(=O)c1ccccc1 (stereo not given) | 230 |
| NC(=O)C(=O)C(Cc1ccccc1)NC(=O)c1ccccc1-c1ccccc1 (stereo not given) | 40 |
| COc1ccc(/C=C/c2ccccc2C(=O)NC(Cc2ccccc2)C(=O)C(N)=O)cc1OC (stereo not given) | 80 |

molecular target: Cathepsin B (Homo sapiens, UniProt P07858); assay: Inhibition of cathepsin B

| Compound | Ki [nM] |
| --- | --- |
| NC(=O)C(=O)C(Cc1ccccc1)NC(=O)c1ccccc1/C=C/c1ccc2ccccc2c1 (stereo not given) | 99 |

molecular target: Procathepsin L (Homo sapiens, UniProt P07711); assay: The compound was evaluated for inhibition of cathepsin L
Sequence (P07711 whole entry): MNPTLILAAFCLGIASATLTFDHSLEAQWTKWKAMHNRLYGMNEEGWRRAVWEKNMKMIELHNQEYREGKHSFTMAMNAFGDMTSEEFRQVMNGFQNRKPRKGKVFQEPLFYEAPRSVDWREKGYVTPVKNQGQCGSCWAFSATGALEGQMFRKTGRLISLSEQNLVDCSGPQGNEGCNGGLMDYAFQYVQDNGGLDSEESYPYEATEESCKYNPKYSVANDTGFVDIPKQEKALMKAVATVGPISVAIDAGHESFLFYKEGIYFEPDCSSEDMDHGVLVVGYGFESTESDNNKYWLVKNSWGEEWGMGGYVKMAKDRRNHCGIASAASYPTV

| Compound | Ki [nM] |
| --- | --- |
| NC(=O)C(=O)C(Cc1ccccc1)NC(=O)c1ccccc1/C=C/c1ccc2ccccc2c1 (stereo not given) | 6100 |

system: not listed separately; assay: Inhibition of calpain-mediated p60 c-Src degradation in human thrombocytes; assay type: functional, cell-based

| Compound | IC50 [nM] |
| --- | --- |
| NC(=O)C(=O)C(Cc1ccccc1)NC(=O)c1ccccc1/C=C/c1ccc2ccccc2c1 (stereo not given) | 1400 |
| CC(C)[C@H](NC(=O)OCc1ccccc1)C(=O)NC(C=O)Cc1ccccc1 (stereo partly drawn) (Cbz-Val-[ξF]-aldehyde) | 700 |
